Experimental data as given in publication PMC6471528, “Biological Evaluation and Molecular Docking Studies of Dimethylpyridine Derivatives” (Molecules, 2019).
One block for each molecule: values may come before it.

What was measured:
[1] = molecular target: T1, COX-2 (Homo sapiens, UniProt P35354); assay: COX colorimetric inhibitor screening assay (TMPD oxidation), COX-2; type: biochemical; settings: for inhibitory activity on COX-2 (in words): 2 min of incubation; for Ratio: COX-2/COX-1: ratio of IC50 values COX-2/COX-1; for IC50: read-out: IC50 (µM),(SD) COX-2
T1 construct: purchased Cayman Chemical Company
T1 sequence (P35354 18-604): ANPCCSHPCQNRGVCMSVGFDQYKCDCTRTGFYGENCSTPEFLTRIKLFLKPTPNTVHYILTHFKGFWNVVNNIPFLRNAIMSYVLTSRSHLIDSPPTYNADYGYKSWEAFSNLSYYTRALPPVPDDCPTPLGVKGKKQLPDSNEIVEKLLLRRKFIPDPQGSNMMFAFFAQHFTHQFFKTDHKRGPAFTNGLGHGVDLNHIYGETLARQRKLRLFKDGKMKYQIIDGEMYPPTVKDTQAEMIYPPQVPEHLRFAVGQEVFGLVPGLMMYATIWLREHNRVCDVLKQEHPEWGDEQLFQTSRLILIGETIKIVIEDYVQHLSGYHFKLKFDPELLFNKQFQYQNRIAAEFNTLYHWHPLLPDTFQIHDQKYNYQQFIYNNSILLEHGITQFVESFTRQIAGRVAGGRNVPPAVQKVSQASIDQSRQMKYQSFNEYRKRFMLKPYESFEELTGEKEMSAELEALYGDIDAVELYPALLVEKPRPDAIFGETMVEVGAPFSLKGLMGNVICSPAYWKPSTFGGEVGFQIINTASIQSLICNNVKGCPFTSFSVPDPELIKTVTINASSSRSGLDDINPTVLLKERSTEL
Experimental: (§1) The compounds were investigated for their potencies to inhibit COX-1 and COX-2 enzymes by the colorimetric inhibitor screening assay.
(§2) Selectivity of the compounds to COX-1 or to COX-2 was assessed by calculation of the IC50 ratios.
(§3) This method allows one to estimate the peroxidase activity of COX by colorimetric monitoring of the occurrence of the oxidized form of N,N,N′,N′-tetramethyl-p-phenylenediamine (TMPD) at 590 nm. TMPD is a substrate for most enzymes with peroxidase activity, and high throughput microplate assays using TMPD allow the rapid screening of a wide range of therapeutics that inhibit COX activity in vitro.
(§4) The test is based on the oxidation of TMPD during the reduction of PGG2 (prostaglandin G2) to PGH2, which is reflected by a change in colour, measured spectrophotometrically (Victor2 microspectrophotometer, PerkinElmer Waltham, MA, USA). The assay uses Tris-HCl buffer (0.1 M assay buffer, pH 8.0), a solution of heme in dimethylsulfoxide (DMSO), enzymes (COX-1, COX-2), arachidonic acid (100 μM), KOH (0.1 M) and a solution of TMPD. The assay mixture contains: 150 µL of assay buffer, 10 µL of heme and 10 µL of COX-1 or COX-2. In order to determine 100% enzyme activity (each COX sample was assayed in triplicate), 10 µL of the substances used as solvents (methanol, ethanol, DMSO) was added to the wells. Ten microlitres of tested inhibitors at appropriate concentrations were added to the other wells. Twenty microlitres of TMPD were added to all wells. The reaction was initiated by the addition of arachidonic acid.
(§5) The effect of tested inhibitors on COX-1 and COX-2 enzyme activity was measured by assaying the rate of TMPD oxidation within 2 min in a spectrophotometer at 590 nm.
(§6) The activity factor at 2 min of incubation with the tested compounds in comparison to the initial activity of the enzyme was determined.

[2] = molecular target: T2, COX-1 (Ovis aries, UniProt P05979); assay: COX colorimetric inhibitor screening assay (TMPD oxidation), COX-1; type: biochemical; settings: for inhibitory activity on COX-1 (in words): 2 min of incubation; for IC50: read-out: IC50 (µM),(SD) COX-1
T2 construct: purchased Cayman Chemical Company
T2 sequence (P05979 25-600): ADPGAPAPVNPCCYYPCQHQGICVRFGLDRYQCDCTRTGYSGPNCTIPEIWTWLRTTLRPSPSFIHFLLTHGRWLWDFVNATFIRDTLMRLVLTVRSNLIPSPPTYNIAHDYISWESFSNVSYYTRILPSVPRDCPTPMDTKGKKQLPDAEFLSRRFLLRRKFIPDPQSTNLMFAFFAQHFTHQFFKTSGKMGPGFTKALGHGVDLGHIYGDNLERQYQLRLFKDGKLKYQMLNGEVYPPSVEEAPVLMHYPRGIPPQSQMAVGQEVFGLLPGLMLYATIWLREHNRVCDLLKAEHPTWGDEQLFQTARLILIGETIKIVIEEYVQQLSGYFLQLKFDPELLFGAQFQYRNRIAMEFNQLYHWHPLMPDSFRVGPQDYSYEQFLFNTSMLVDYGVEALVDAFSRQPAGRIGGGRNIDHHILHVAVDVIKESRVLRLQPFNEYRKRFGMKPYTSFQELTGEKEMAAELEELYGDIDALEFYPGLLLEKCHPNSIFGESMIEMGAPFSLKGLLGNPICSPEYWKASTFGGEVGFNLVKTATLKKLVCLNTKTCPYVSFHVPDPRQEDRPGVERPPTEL
Experimental: as §1, §2, §3, §4, §5, §6

[3] = system: V79 (fibroblast from Chinese hamster lung); assay: Sulforhodamine B cytotoxicity assay, V79; type: cell-based; settings: Cricetulus griseus, SRB assay, 48 h, mean (SD), n = 3
From the text: (§7) The sulforhodamine B assay was used to estimate the cytotoxic properties of the compounds. The cytotoxic activity of dimethylpyridine derivatives was studied against human cancer cell lines: A549 (pulmonary basal cell alveolar adenocarcinoma) and LoVo (colon adenocarcinoma). Additionally, the effect of compounds on NHDF (normal human dermal fibroblasts) and normal cell line V79 (fibroblast from Chinese hamster lung) was examined.
(§8) Normal human dermal fibroblasts (NHDF) from adult donors were purchased from Lonza (Verviers, Belgium). Normal cell line V79 (fibroblast from Chinese hamster lung) and human cancer cell lines, A549 (pulmonary basal cell alveolar adenocarcinoma) and LoVo (colon adenocarcinoma) were obtained from the European Collection of Authenticated Cell Cultures (ECACC).
(§9) Cells were grown in the culture media recommended by the cell line supplier. Before the test, adherent cells were detached with the trypsin EDTA solution, and FBS-containing medium was used to neutralize the effects of the trypsin/EDTA solution. After that, cells were spun down, counted, stained with a 0.4% solution of trypan blue and inspected under a microscope for cell viability. Then, cells were placed on 96-well plastic culture plates (2 × 10^3 cells/well) and incubated at 37 °C in a CO2-incubator for 24 h. Afterwards, all the tested compounds were added at appropriate final concentrations (100 µM, 50 µM, 20 µM, 10 µM, 5 µM), and the cultures were incubated for 48 h in CO2-incubator at 37 °C. Finally, cells were harvested and intended for the cell proliferation test.
(§10) Cell density/cell proliferation was estimated with the sulforhodamine B (SRB)-colorimetric assay. Briefly, cell cultures were fixed with cold TCA (final concentration 10% (w/v) in cultures of adherent cells for 1 h at 4 °C, then washed four times with tap water and air-dried at room temperature (20–25 °C). A mildly-acidic SRB solution (0.4% dye solution in 1% acetic acid) was added to each well for 30 min at 25 °C. Then, the unbound stain was removed by rinsing with an aqueous solution of 1% (v/v) acetic acid. Culture plates were then allowed to dry at room temperature. The protein-bound dye was dissolved in 10 mM Tris base solution (pH 10.5) for 10 min on a gyratory shaker. Absorbance of the SRB solution was estimated at 540 nm in a Victor 2 microplate reader (Perkin-Elmer, Waltham, MA, USA).

[4] = system: A549 (pulmonary basal cell alveolar adenocarcinoma); assay: Sulforhodamine B cytotoxicity assay, A549; type: cell-based; settings: Homo sapiens, SRB assay, 48 h, mean (SD), n = 3
From the text: as §7, §8, §9, §10

[5] = system: LoVo (colon adenocarcinoma); assay: Sulforhodamine B cytotoxicity assay, LoVo; type: cell-based; settings: Homo sapiens, SRB assay, 48 h, mean (SD), n = 3
From the text: as §7, §8, §9, §10

[6] = system: NHDF (normal human dermal fibroblasts); assay: Sulforhodamine B cytotoxicity assay, NHDF; type: cell-based; settings: SRB assay, 48 h, mean (SD), n = 3
From the text: as §7, §8, §9, §10

SMILES: CN1C(C(=O)Nc2ccccn2)=C(O)c2ccccc2S1(=O)=O [Piroxicam, reference compound]
IC50 [5]: 122 µM | IC50 [3]: 200 µM | IC50 [4]: 138 µM

SMILES: Cc1cnc(NC(=O)C2=C(O)c3ccccc3S(=O)(=O)N2C)s1 [Meloxicam, reference compound]
IC50 [6]: 206 µM | IC50 [5]: 125 µM | IC50 [3]: 232 µM | IC50 [4]: 148 µM

SMILES: Cc1cc(C)c(C(=O)NCC(=O)N/N=C/c2ccccc2)c(S)n1 [PS18, N′-phenylmethylene derivative]
Ratio: COX-2/COX-1 [1]: 2.4 | IC50 [1]: 139 µM | IC50 [6]: 171 µM | IC50 [2]: 57.3 µM | IC50 [5]: 135 µM | IC50 [3]: 275 µM | IC50 [4]: 154 µM

SMILES: Cc1cc(C)c(C(=O)NCC(=O)N/N=C/c2cccc3ccccc23)c(S)n1 [PS34, N′-naphtylmethylene derivative]
inhibitory activity on COX-2 (in words) [1]: no inhibitory activity | inhibitory activity on COX-1 (in words) [2]: no inhibitory activity | IC50 [3]: 421 µM

SMILES: Cc1ccc(/C=N/NC(=O)CNC(=O)c2c(C)cc(C)nc2S)cc1 [PS33, N′-4-methylphenylmethylene derivative]
Ratio: COX-2/COX-1 [1]: 2.8 | IC50 [1]: 143 µM | IC50 [6]: 159 µM | IC50 [2]: 51.8 µM | IC50 [5]: 131 µM | IC50 [3]: 178 µM | IC50 [4]: 156 µM

SMILES: Cc1cc(C)c(C(=O)NCC(=O)N/N=C/c2c3ccccc3cc3ccccc23)c(S)n1 [PS35]
inhibitory activity on COX-2 (in words) [1]: no inhibitory activity | IC50 [6]: 202 µM | inhibitory activity on COX-1 (in words) [2]: no inhibitory activity | IC50 [5]: 212 µM | IC50 [3]: 196 µM

SMILES: Cc1cc(C)c(C(=O)NCC(=O)N/N=C/c2ccc([N+](=O)[O-])cc2)c(S)n1 [PS36]
IC50 [1]: 731 µM | IC50 [6]: 144 µM | inhibitory activity on COX-1 (in words) [2]: did not show any inhibitory activity | IC50 [5]: 99.8 µM | IC50 [3]: 141 µM | IC50 [4]: 164 µM

More lines, main results first:

inhibitory activity on COX-2 (in words) [1]: no inhibitory activity | inhibitory activity on COX-1 (in words) [2]: no inhibitory activity
SMILES: Cc1cc(C)c(C(=O)NCC(=O)N/N=C/c2ccc(C(F)(F)F)cc2)c(S)n1 [PS38]
IC50 [3]: 172 µM | IC50 [4]: 504 µM

inhibitory activity on COX-2 (in words) [1]: no inhibitory activity | inhibitory activity on COX-1 (in words) [2]: no inhibitory activity
SMILES: Cc1cc(C)c(C(=O)NCC(=O)N/N=C/c2ccc(Cl)cc2Cl)c(S)n1 [PS41]
IC50 [6]: 336 µM | IC50 [5]: 154 µM | IC50 [3]: 418 µM | IC50 [4]: 220 µM

inhibitory activity on COX-2 (in words) [1]: no inhibitory activity | inhibitory activity on COX-1 (in words) [2]: no inhibitory activity
SMILES: Cc1cc(C)c(C(=O)NCC(=O)N/N=C/c2cc([N+](=O)[O-])ccc2Cl)c(S)n1 [PS39]
IC50 [6]: 391 µM | IC50 [5]: 103 µM | IC50 [3]: 147 µM | IC50 [4]: 120 µM

Ratio: COX-2/COX-1 [1]: 2.4 | IC50 [1]: 177 µM | IC50 [2]: 72.8 µM
SMILES: CCOc1ccccc1/C=N/NC(=O)CNC(=O)c1c(C)cc(C)nc1S [PS42]
IC50 [6]: 132 µM | IC50 [5]: 133 µM | IC50 [3]: 162 µM | IC50 [4]: 140 µM
